US20260116845A1, “LIPIDS AND COMPOSITIONS THEREOF” (Kernal Biologics, Inc., priority 2023, published 2026)

What was measured:
AML12 Cell Line = assay: Transfection of AML12 Cell Line with FLuc mRNA LNPs (ONE-Glo EX luciferase signal); assay type: cell-based; details: 200 ng Fluc mRNA-LNP, 24 hours
In short: (§1)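 Firefly luciferase luminescence measured 24 h after transfection with 200 ng mRNA-LNP per well in Opti-MEM. Seeding: 5,000 cells/well for B16F10 and MC38.K, 20,000 for AML12. LNPs were pre-incubated 30 min with mouse serum; mRNA content determined by RiboGreen.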

Liver = assay: Ex-vivo luminescence signal from liver after IV Fluc mRNA LNPs in CD1 mice (IVIS); details: tail vein 1.0 mg/kg Day 0 and Day 2, imaging 18 hours after second dose; for Total Liver Tissue Luciferin Signal (Photons/s) In Vivo-Cd1: Table 5
MC38.K Cell Line = assay: Transfection of MC38.K Cell Line with FLuc mRNA LNPs (ONE-Glo EX luciferase signal); assay type: cell-based; details: 200 ng Fluc mRNA-LNP, 24 hours; for Total Luciferin Signal (RLU) In Vitro-MC38: Table 5; for Total Luciferin Signal (RLU) In Vitro - MC38.K: Table 4
In short: as §1

Spleen = assay: Ex-vivo luminescence signal from spleen after IV Fluc mRNA LNPs in CD1 mice (IVIS); details: tail vein 1.0 mg/kg Day 0 and Day 2, imaging 18 hours after second dose, Table 5
B16F10 Cell Line = assay: Transfection of B16F10 Cell Line with FLuc mRNA LNPs (ONE-Glo EX luciferase signal); assay type: cell-based; details: 200 ng Fluc mRNA-LNP, 24 hours
In short: as §1

Structure (SMILES) | Total Luciferin Signal (RLU) In Vitro - AML12 (AML12 Cell Line; Table 5) [RLU] | Total Liver Tissue Luciferin Signal (Photons/s) In Vivo-Cd1 (Liver) [Photons/s] | Total Luciferin Signal (RLU) In Vitro-MC38 (MC38.K Cell Line) [RLU] | Total Spleen Tissue Luciferin Signal (Photons/s) In Vivo-Cd1 (Spleen) [Photons/s] | Total Luciferin Signal (RLU) In Vitro - B16F10 (B16F10 Cell Line; Table 5) [RLU] | Total Luciferin Signal (RLU) In Vitro - AML12 (AML12 Cell Line; Table 4) [RLU] | Total Liver Tissue Luciferin Signal (Photons/s) In Vitro - CD1 (Liver; Table 4) [Photons/s] | Total Luciferin Signal (RLU) In Vitro - MC38.K (MC38.K Cell Line) [RLU] | Total Luciferin Signal (RLU) In Vitro - B16F10 (B16F10 Cell Line; Table 4) [RLU] | Total Liver Tissue Luciferin Signal (Photons/s) Ex-vivo - CD1 (Liver; Table 4) [Photons/s]
CCCCCCCC/C=C\CCCCCCC1CN(CCOC(=O)CCCN(C)C)CC(CCCCCC/C=C\CCCCCCCC)O1 (centres unmarked) [Compound 93, 2-{2,6-bis[(Z)-7-hexadecenyl]-4-morpholinyl}ethyl 4-(dimethylamino)butyrate] | 3.05E+07 | 1.72E+06 | 3.69E+05 | 2.48E+06 | 4.80E+05 |  |  |  |  | 
CCCCCCCCC(CCCCCCCC)OC(=O)CCCCCC1CN(CCOC(=O)CCN(C)C)CC(CCCCCC(=O)OC(CCCCCCCC)CCCCCCCC)O1 (centres unmarked) [Compound 100, di(heptadecan-9-yl) 6,6′-(4-(2-((3-(dimethylamino)propanoyl)oxy)ethyl)morpholine-2,6-diyl)dihexanoate] | 1.43E+04 | 6.44E+09 | 3.18E+04 | 2.92E+07 | 6.29E+04 |  |  |  |  | 
CCCCCCCC/C=C\CCCCCCC1CN(CCO)CC(CCCCCC/C=C\CCCCCCCC)O1 (centres unmarked) [Compound 92, 2-(2,6-di((Z)-hexadec-7-en-1-yl)morpholino)ethan-1-ol] | 2.46E+04 | 1.07E+07 |  | 2.05E+06 | 8.03E+05 |  |  |  |  | 
CCCCCCCC/C=C\CCCCCCC1CN(CCOC(=O)CCN(C)C)CC(CCCCCC(=O)OC(CCCCCCCC)CCCCCCCC)O1 (centres unmarked) [Compound 97, heptadecan-9-yl (Z)-6-(4-(2-((3-(dimethylamino)propanoyl)oxy)ethyl)-6-(hexadec-7-en-1-yl)morpholin-2-yl)hexanoate] | 2.58E+05 | 2.08E+08 | 6.42E+05 | 1.60E+07 | 2.98E+06 |  |  |  |  | 
CCCCCCCC/C=C\CCCCCCC1CN(CCOC(=O)CCN(C)C)CC(CCCCCC/C=C\CCCCCCCC)O1 (centres unmarked) [Compound 95, 2-(2,6-di((Z)-hexadec-7-en-1-yl)morpholino)ethyl 3-(dimethylamino)propanoate] | 1.49E+05 | 2.92E+06 | 7.12E+04 | 2.69E+06 | 2.09E+05 |  |  |  |  | 
[2H]C([2H])(O)C([2H])([2H])N(CCCCCCCC(=O)OCCCCCCCCC)CCCCCCCC(=O)OC(CCCCCCCC)CCCCCCCC [Compound 39, heptadecan-9-yl 8-((2-hydroxyethyl-1,1,2,2-d4)(8-(nonyloxy)-8-oxooctyl)amino)octanoate] |  |  |  |  |  | 6.92E+05 | 7.86E+06 | 8.82E+05 | 3.58E+05 | 
CCCCCCCCC(CCCCCCCF)OC(=O)CCCCCCCN(CCO)CCCCCC(=O)OC(CCCCCCCC)CCCCCCCC (centres unmarked) [Compound 29] |  |  |  |  |  | 8.52E+04 |  | 2.97E+05 | 8.63E+05 | 7.57E+09
CCCCCCCCC(CCCCCCCC)OC(=O)CCCCCCCN(CCO)CCCCCCCC(=O)OCCCCCCCCC(C)C [Compound 2] |  |  |  |  |  | 4.76E+06 |  | 4.24E+06 | 5.94E+06 | 6.20E+09
CCCCCCCCC(CCCCCCCCF)C(=O)OCCCCCCCN(CCO)CCCCCCCOC(=O)CCCCCCCCC(C)C (centres unmarked) [Compound 60, 7-((7-((10-fluoro-2-octyldecanoyl)oxy)heptyl)(2-hydroxyethyl)amino)heptyl 10-methylundecanoate] |  |  |  |  |  | 8.00E+05 |  | 5.21E+06 | 3.17E+05 | 3.00E+09
CCCCCCCCC(CCCCCCCC)OC(=O)CCCCCN(CCO)CCCCCC(=O)OCCCCCCCCCCC(C)C [Compound 16] |  |  |  |  |  | 1.67E+06 |  | 2.39E+06 | 7.67E+06 | 5.11E+09
CCCCCCCCC(CCCCCCCC)OC(=O)CCCCCCCN(CCO)CCCCCC(=O)OCCCCCCCCC(C)C [Compound 1] |  |  |  |  |  | 1.96E+06 |  | 7.83E+06 | 6.92E+06 | 9.00E+09
CCCCCCCCCOC(=O)CCCCCCCN(CCCO)CCCCCCCC(=O)OC(CCCCCCCC)CCCCCCCCF (centres unmarked) [Compound 30] |  |  |  |  |  | 8.06E+05 |  | 4.65E+05 | 1.16E+05 | 1.53E+10
CCCCCCCCC(CCCCCCCC)OC(=O)CCCCCCCN(CCO)CCCCCCC(C)C(=O)OCCCCCCCCC(C)C (centres unmarked) [Compound 59, 9-methyldecyl 8-((8-(heptadecan-9-yloxy)-8-oxooctyl)(2-hydroxyethyl)amino)-2-methyloctanoate] |  |  |  |  |  | 8.24E+05 |  | 8.40E+06 | 6.17E+05 | 5.55E+09
CCCCCCCCC(CCCCCCCCF)C(=O)OCCCCCCCN(CCCCO)CCCCCCCOC(=O)CCCCCCCCC(C)C (centres unmarked) [Compound 69, 7-((7-((10-fluoro-2-octyldecanoyl)oxy)heptyl)(4-hydroxybutyl)amino)heptyl 10-methylundecanoate] |  |  |  |  |  | 8.05E+06 |  | 4.67E+07 | 3.62E+06 | 4.64E+09
CCCCCCCCCOC(=O)CCCCCCCN(CCO)CCCCCCC(C)C(=O)OC(CCCCCCCC)CCCCCCCC (centres unmarked) [Compound 36] |  |  |  |  |  | 2.18E+05 |  | 2.32E+05 | 2.85E+05 | 6.41E+08
CCCCCCCC/C=C\CCCCCCC1CN(CCO)CC(CCCCCCCCCCCC)O1 (centres unmarked) [Compound 91, (Z)-2-(2-dodecyl-6-(hexadec-7-en-1-yl)morpholino)ethan-1-ol] | 1.94E+04 | 3.65E+06 |  | 1.44E+06 | 2.02E+05 |  |  |  |  | 
CCCCCCCCC(CCCCCCCC)C(=O)OCCCCCCCN(CCCCCC(=O)OCCCCCCCCC(C)C)CCOC(=O)CCCN(C)C [Compound 9] |  |  |  |  |  | 6.57E+05 |  | 1.23E+06 | 3.27E+06 | 4.41E+07
CCCCCCCCCOC(=O)CCCCCCCN(CCCCCCC(C)C(=O)OC(CCCCCCCC)CCCCCCCC)CCOC(=O)CCCN(C)C (centres unmarked) [Compound 38, heptadecan-9-yl 8-((2-((4-(dimethylamino)butanoyl)oxy)ethyl)(8-(nonyloxy)-8-oxooctyl)amino)-2-methyloctanoate] |  |  |  |  |  | 1.22E+06 |  | 2.06E+06 | 2.75E+06 | 5.28E+07
CCCCCCCCCCCOC(=O)CCCCCN(CCO)CCCCCCCC(=O)OC(CCCCCCCC)CCCCCCCCF (centres unmarked) [Compound 33] |  |  |  |  |  | 1.38E+05 |  | 1.07E+06 | 4.80E+05 | 2.93E+09
CCCCCCCCC(CCCCCCCF)OC(=O)CCCCCCCN(CCO)CCCCCC(=O)OC(CCCCCCCC)CCCCCC(C)C (centres unmarked) [Compound 55, 1-fluorohexadecan-8-yl 8-((2-hydroxyethyl)(6-((2-methylhexadecan-8-yl)oxy)-6-oxohexyl)amino)octanoate] |  |  |  |  |  | 4.19E+05 |  | 1.80E+06 | 1.10E+06 | 1.93E+10
CCCCCCCCCCCCC1CN(CCO)CC(CCCCCCCCCCCC)O1 (centres unmarked) [Compound 90, 2-(2,6-didodecylmorpholino)ethan-1-ol] | 2.69E+04 | 3.35E+06 |  | 5.69E+05 | 8.93E+04 |  |  |  |  | 
CCCCCCCCCOC(=O)CCCCCN(CCO)CCCCCCCC(=O)OC(CCCCCCCC)CCCCCCCCF (centres unmarked) [Compound 34] |  |  |  |  |  | 1.56E+05 |  | 4.19E+05 | 238754.8 | 1.89E+09
